Assay results published in patent US20250388605A1, “HETEROBIFUNCTIONAL COMPOUNDS AND METHODS OF TREATING DISEASE” (Halda Therapeutics OpCo, Inc., priority 2022, published 2025).

Assays:
BRD4-BD1 = target: T1, BRD4-BD1 (Homo sapiens, UniProt O60885); test: Binding affinity to BRD4-BD1 (bromoKdELECT assay); settings: 11-point 3-fold dilution series
T1 construct: made in house; host or cells: T7 phage grown in an E. coli host derived from the BL21 strain
Method: (§1) Compounds were tested using a bromoKdELECT assay. T7 phage strains displaying bromodomains were grown in parallel in 24-well blocks in an E. coli host derived from the BL21 strain. E. coli were grown to log-phase and infected with T7 phage from a frozen stock (multiplicity of infection=0.4) and incubated with shaking at 32° C. until lysis (90-150 minutes). The lysates were centrifuged (5,000×g) and filtered ([…]) to remove cell debris. Streptavidin-coated magnetic beads were treated with biotinylated small molecule or acetylated peptide ligands for 30 minutes at room temperature to generate affinity resins for bromodomain assays. The liganded beads were blocked with excess biotin and washed with blocking buffer (SeaBlock (Pierce), 1% BSA, 0.05% Tween 20, 1 mM DTT) to remove unbound ligand and to reduce nonspecific phage binding. Binding reactions were assembled by combining bromodomains, liganded affinity beads, and test compounds in 1× binding buffer (17% SeaBlock, 0.33×PBS, 0.04% Tween 20, 0.02% BSA, 0.004% Sodium azide, 7.4 mM DTT). Test compounds were prepared as 1000× stocks in 100% DMSO. Kds were determined using an 11-point 3-fold compound dilution series with one DMSO control point. All compounds for Kd measurements are distributed by acoustic transfer (non-contact dispensing) in 100% DMSO. The compounds were then diluted directly into the assays such that the final concentration of DMSO was 0.09%. All reactions performed in polypropylene 384-well plates. Each was a final volume of 0.02 ml. The assay plates were incubated at room temperature with shaking for 1 hour and the affinity beads were washed with wash buffer (1×PBS, 0.05% Tween 20). The beads were then resuspended in elution buffer (1×PBS, 0.05% Tween 20, 2 M non-biotinylated affinity ligand) and incubated at room temperature with shaking for 30 minutes. The bromodomain concentration in the eluates was measured by qPCR.

BRD4-BD2 = target: T2, BRD4-BD2 (Homo sapiens, UniProt O60885); test: Binding affinity to BRD4-BD2 (bromoKdELECT assay); settings: 11-point 3-fold dilution series
T2 construct: made in house; host or cells: T7 phage grown in an E. coli host derived from the BL21 strain
Method: as §1, with “2 μM” for “2 M”

[1] = tested on: T-Rex 293 cell line SC3 cells lacking increased expression of androgen receptor protein; test: Cellular growth inhibition, T-Rex 293 SC3 cells without doxycycline (no increased androgen receptor expression), CellTiter-Glo; format: cell-based; settings: T-Rex 293 SC3 cells not exposed to doxycycline (no increased androgen receptor expression), 72 hours
In short: (§2)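 Growth inhibition is measured in an inducible AR-expressing T-Rex 293 clone, SC3, cultured with or without 10 ng/mL doxycycline in hormone-depleted medium. Test compounds are applied for 72 hours. GI50 values derive from CellTiter-Glo 2.0 signal fitted by four-parameter regression.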

[2] = tested on: T-Rex 293 cell line SC3 cells having increased expression of androgen receptor protein due to exposure to doxycycline; test: Cellular growth inhibition, T-Rex 293 SC3 cells with doxycycline (increased androgen receptor expression), CellTiter-Glo; format: cell-based; settings: T-Rex 293 SC3 cells with 10 ng/mL doxycycline (increased androgen receptor expression), 72 hours, CellTiter-Glo 2.0
In short: as §2

VCaP cells = test: Cellular growth inhibition assay for VCaP cells, CellTiter-Glo; format: cell-based, human; settings: 72 hours
In short: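 GI50 values come from four-parameter curve fits of luminescence data normalized to a zero baseline. Compound, in medium with 0.5% DMSO, was added one day after plating and left for 72 h before CellTiter-Glo 2.0 addition.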

T47D cells = test: Cellular Growth Inhibition Assay for T47D Cells (CellTiter-Glo); format: cell-based, human; settings: 72 hours
In short: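 GI50 values derive from four-parameter regression of CellTiter-Glo 2.0 luminescence, using zero luminescence as baseline. Human breast cancer T47D cells (3000/well; DMEM, 10% FBS, 0.2 units/mL insulin) were exposed for 72 h to compound dilutions at 0.5% DMSO, with dosing starting 24 h after seeding.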

| Structure (SMILES) | Kd (BRD4-BD1) | Kd (BRD4-BD2) | GI50 (VCaP cells; Homo sapiens) | GI50 (T47D cells) | GI50 (VCaP cells) | GI50 [1] | GI50 [2] |
| --- | --- | --- | --- | --- | --- | --- | --- |
| CCS(=O)(=O)Nc1ccc(Oc2cccc(OCCCN3CCN(CCCN(C)c4ncc(C(=O)N[C@H]5C(C)(C)[C@H](Oc6ccc(C#N)c(Cl)c6)C5(C)C)cn4)CC3)c2)c(-c2cn(C)c(=O)c3[nH]ccc23)c1 [Compound I-5] | 0.05 to 0.5 µM | < 0.05 µM |  |  |  | 0.5 to 1.5 µM | < 0.5 µM |
| CCS(=O)(=O)Nc1ccc(Oc2cccc(OCCOCCOCCOCCOCCOCCOCCOC3CCN(c4ncc(C(=O)N[C@H]5C(C)(C)[C@H](Oc6ccc(C#N)c(Cl)c6)C5(C)C)cn4)CC3)c2)c(-c2cn(C)c(=O)c3[nH]ccc23)c1 [Compound I-9] | 0.05 to 0.5 µM | < 0.05 µM | < 0.5 µM |  |  | 0.5 to 1.5 µM | < 0.5 µM |
| CCS(=O)(=O)Nc1ccc(Oc2cccc(OCCCN3CCN(CCCOC4CCN(c5ncc(C(=O)N[C@H]6C(C)(C)[C@H](Oc7ccc(C#N)c(Cl)c7)C6(C)C)cn5)CC4)CC3)c2)c(-c2cn(C)c(=O)c3[nH]ccc23)c1 [Compound I-10] | 0.05 to 0.5 µM | < 0.05 µM | < 0.5 µM |  |  | < 0.5 µM | < 0.5 µM |
| Cn1cc(-c2cc(NS(=O)(=O)C3CC3)ccc2Oc2cccc(OCCOC3CCN(c4ncc(C(=O)N[C@H]5C(C)(C)[C@H](Oc6ccc(C#N)c(Cl)c6)C5(C)C)cn4)CC3)c2)c2cc[nH]c2c1=O [Compound I-48, N-((1r, 3r)-3-(3-chloro-4-cyanophenoxy)-2,2,4,4-tetramethylcyclobutyl)-2-(4-(2-(3-(4-(cyclopropanesulfonamido)-2-(6-methyl-7-oxo-6,7-dihydro-1H-pyrrolo[2,3-c]pyridin-4-yl)phenoxy)phenoxy)ethoxy)piperidin-1-yl)pyrimidine-5-carboxamide] | > 2.5 µM | 0.5 to 2.5 µM | < 0.5 µM |  |  | > 3 µM | < 0.5 µM |
| CN(c1ccc(Oc2cccc(OCCOC3CCN(c4ncc(C(=O)N[C@H]5C(C)(C)[C@H](Oc6ccc(C#N)c(Cl)c6)C5(C)C)cn4)CC3)c2)c(-c2cn(C)c(=O)c3[nH]ccc23)c1)S(=O)(=O)C1CC1 [Compound I-49] | > 2.5 µM | 0.5 to 2.5 µM | < 0.5 µM |  |  | > 3 µM | < 0.5 µM |
| CN(c1ccc(Oc2cccc(OCCOC3CCN(c4ncc(C(=O)N[C@H]5C(C)(C)[C@H](Oc6ccc(C#N)c(Cl)c6)C5(C)C)cn4)CC3)c2)c(-c2cn(C)c(=O)c3[nH]ccc23)c1)S(C)(=O)=O [Compound I-51] | > 2.5 µM | 0.5 to 2.5 µM | < 0.5 µM |  |  | < 0.5 µM | < 0.5 µM |
| CCS(=O)(=O)N(C)c1ccc(Oc2cccc(OCCOC3CCN(c4ncc(C(=O)N[C@H]5C(C)(C)[C@H](Oc6ccc(C#N)c(Cl)c6)C5(C)C)cn4)CC3)c2)c(-c2cn(C)c(=O)c3[nH]ccc23)c1 [Compound I-52] | > 2.5 µM | 0.5 to 2.5 µM | < 0.5 µM |  |  | < 0.5 µM | < 0.5 µM |

Further lines, with some results ahead:

| Kd (BRD4-BD1) | Kd (BRD4-BD2) | GI50 (VCaP cells; Homo sapiens) | GI50 (T47D cells) | GI50 (VCaP cells) | Structure (SMILES) | GI50 [1] | GI50 [2] |
| --- | --- | --- | --- | --- | --- | --- | --- |
| > 2.5 µM | < 0.05 µM | < 0.5 µM |  |  | CCS(=O)(=O)Nc1ccc(Oc2cccc(OCCOC3CCN(c4ncc(C(=O)N[C@H]5C(C)(C)[C@H](Oc6ccc(C#N)c(Cl)c6)C5(C)C)cn4)CC3)c2F)c(-c2cn(C)c(=O)c3[nH]ccc23)c1 [Compound I-64] | < 0.5 µM | < 0.5 µM |
| 0.05 to 0.5 µM | 0.05 to 0.5 µM | < 0.5 µM |  |  | CCS(=O)(=O)Nc1ccc(OC(COCCOC2CCN(c3ncc(C(=O)N[C@H]4C(C)(C)[C@H](Oc5ccc(C#N)c(Cl)c5)C4(C)C)cn3)CC2)C2CC2)c(-c2cn(C)c(=O)c3[nH]ccc23)c1 (stereo partly drawn) [Compound I-67] | < 0.5 µM | < 0.5 µM |
|  |  |  | < 0.5 µM | < 0.5 µM | Cn1cc(-c2cc(C(C)(C)O)ccc2Oc2ccc(N3CC(C4CC5(C4)CN(c4ncc(C(=O)N[C@H]6C(C)(C)[C@H](Oc7ccc(C#N)c(Cl)c7)C6(C)C)cn4)C5)C3)cc2)c2cc[nH]c2c1=O [Compound I-351] | < 0.5 µM | < 0.5 µM |
